Key:
Assay in all cases: relative viability (nuclei count vs DMSO), 5 days (fraction); higher = more cells survive
[1] = tested on: LOU-NH91
In short: (§1)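 Lung cancer cell lines were seeded in 1536-well plates and dosed by pin tool the next day, with either a single drug or a fixed anchor-drug dose combined with five library-drug doses (not always all listed) spaced in √10 steps. Five days later, one step fixed the cells and stained their nuclei (final 0.05% Triton X-100, 1% formaldehyde, 1 ug/ml Hoechst), and nuclei were counted on 4× images. Relative viability is the nuclei count in treated wells divided by the count in vehicle wells, and each value is the median of duplicate plates.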

[2] = tested on: NCI-H1648
In short: as §1

[3] = tested on: NCI-H1703
In short: as §1

[4] = tested on: NCI-H2405
In short: as §1

[5] = tested on: NCI-H647
In short: as §1

[6] = tested on: NCI-H2009
In short: as §1

CN1CCN(CCOc2cc(OC3CCOCC3)c3c(Nc4c(Cl)ccc5c4OCO5)ncnc3c2)CC1 [Saracatinib] + NC(=O)Nc1cc(-c2cccc(F)c2)sc1C(=O)N[C@H]1CCCNC1 [AZD7762] (partner 0.2 µM)
relative viability ([1]; first compound 0.02 µM): 0.785 | relative viability ([1]; first compound 0.2 µM): 0.722 | relative viability ([1]; first compound 0.6325 µM): 0.745 | relative viability ([1]; first compound 2 µM): 0.598 | relative viability ([2]; first compound 0.02 µM): 0.79 | relative viability ([2]; first compound 0.2 µM): 0.633 | relative viability ([2]; first compound 0.6325 µM): 0.865 | relative viability ([2]; first compound 2 µM): 0.379 | relative viability ([3]; first compound 0.02 µM): 0.136 | relative viability ([3]; first compound 0.6325 µM): 0.129 | relative viability ([3]; first compound 2 µM): 0.114 | relative viability ([4]; first compound 0.02 µM): 0.702 | relative viability ([4]; first compound 0.2 µM): 0.594 | relative viability ([4]; first compound 0.6325 µM): 0.554 | relative viability ([4]; first compound 2 µM): 0.388 | relative viability ([5]; first compound 0.02 µM): 0.564 | relative viability ([5]; first compound 0.2 µM): 0.509 | relative viability ([5]; first compound 0.6325 µM): 0.507 | relative viability ([5]; first compound 2 µM): 0.354

CN1CCN(CCOc2cc(OC3CCOCC3)c3c(Nc4c(Cl)ccc5c4OCO5)ncnc3c2)CC1 [Saracatinib] + Nc1nc2[nH]cc(CCc3ccc(C(=O)N[C@@H](CCC(=O)O)C(=O)O)cc3)c2c(=O)[nH]1 [Pemetrexed] (partner 0.2 µM)
relative viability ([1]; first compound 0.02 µM): 0.397 | relative viability ([1]; first compound 0.2 µM): 0.417 | relative viability ([1]; first compound 0.6325 µM): 0.472 | relative viability ([1]; first compound 2 µM): 0.457 | relative viability ([2]; first compound 0.02 µM): 0.721 | relative viability ([2]; first compound 0.2 µM): 0.766 | relative viability ([2]; first compound 0.6325 µM): 1.08 | relative viability ([2]; first compound 2 µM): 0.415 | relative viability ([6]; first compound 0.02 µM): 1.01 | relative viability ([6]; first compound 0.2 µM): 0.962 | relative viability ([6]; first compound 0.6325 µM): 0.993 | relative viability ([6]; first compound 2 µM): 1.05 | relative viability ([4]; first compound 0.02 µM): 0.995 | relative viability ([4]; first compound 0.2 µM): 0.671 | relative viability ([4]; first compound 0.6325 µM): 0.843 | relative viability ([4]; first compound 2 µM): 0.488 | relative viability ([5]; first compound 0.02 µM): 0.191 | relative viability ([5]; first compound 0.2 µM): 0.148 | relative viability ([5]; first compound 0.6325 µM): 0.159 | relative viability ([5]; first compound 2 µM): 0.138

Cc1cn(-c2cc(NC(=O)c3ccc(C)c(Nc4nccc(-c5cccnc5)n4)c3)cc(C(F)(F)F)c2)cn1 [Nilotinib] + NC(=O)Nc1cc(-c2cccc(F)c2)sc1C(=O)N[C@H]1CCCNC1 [AZD7762] (partner 0.2 µM)
relative viability ([1]; first compound 0.001 µM): 0.748 | relative viability ([1]; first compound 0.003162 µM): 0.742 | relative viability ([1]; first compound 0.01 µM): 0.772 | relative viability ([1]; first compound 0.03162 µM): 0.65 | relative viability ([1]; first compound 0.1 µM): 0.684 | relative viability ([2]; first compound 0.001 µM): 0.561 | relative viability ([2]; first compound 0.003162 µM): 0.664 | relative viability ([2]; first compound 0.01 µM): 0.663 | relative viability ([2]; first compound 0.03162 µM): 0.569 | relative viability ([2]; first compound 0.1 µM): 0.65 | relative viability ([3]; first compound 0.001 µM): 0.117 | relative viability ([3]; first compound 0.003162 µM): 0.121 | relative viability ([3]; first compound 0.01 µM): 0.11 | relative viability ([3]; first compound 0.03162 µM): 0.121 | relative viability ([3]; first compound 0.1 µM): 0.117 | relative viability ([4]; first compound 0.001 µM): 0.684 | relative viability ([4]; first compound 0.003162 µM): 0.628 | relative viability ([4]; first compound 0.01 µM): 0.665 | relative viability ([4]; first compound 0.03162 µM): 0.557 | relative viability ([4]; first compound 0.1 µM): 0.399 | relative viability ([5]; first compound 0.001 µM): 0.477 | relative viability ([5]; first compound 0.003162 µM): 0.41 | relative viability ([5]; first compound 0.01 µM): 0.359 | relative viability ([5]; first compound 0.03162 µM): 0.285 | relative viability ([5]; first compound 0.1 µM): 0.341

CN1CCN(CCOc2cc(OC3CCOCC3)c3c(Nc4c(Cl)ccc5c4OCO5)ncnc3c2)CC1 [Saracatinib] + CC(=O)c1c(C)c2cnc(Nc3ccc(N4CCNCC4)cn3)nc2n(C2CCCC2)c1=O [Palbociclib] (partner 0.5 µM)
relative viability ([1]; first compound 0.02 µM): 0.487 | relative viability ([1]; first compound 0.2 µM): 0.551 | relative viability ([1]; first compound 0.6325 µM): 0.569 | relative viability ([1]; first compound 2 µM): 0.49 | relative viability ([2]; first compound 0.02 µM): 0.252 | relative viability ([2]; first compound 0.2 µM): 0.291 | relative viability ([2]; first compound 0.6325 µM): 0.304 | relative viability ([2]; first compound 2 µM): 0.307 | relative viability ([6]; first compound 0.02 µM): 0.261 | relative viability ([6]; first compound 0.2 µM): 0.136 | relative viability ([6]; first compound 0.6325 µM): 0.201 | relative viability ([6]; first compound 2 µM): 0.136 | relative viability ([4]; first compound 0.02 µM): 0.567 | relative viability ([4]; first compound 0.2 µM): 0.45 | relative viability ([4]; first compound 0.6325 µM): 0.44 | relative viability ([4]; first compound 2 µM): 0.358 | relative viability ([5]; first compound 0.02 µM): 0.383 | relative viability ([5]; first compound 0.2 µM): 0.239 | relative viability ([5]; first compound 0.6325 µM): 0.347 | relative viability ([5]; first compound 2 µM): 0.265

— the supplement of paper PMC10307832
